{"source": "BindingDB's records for doi:10.1016/j.bmc.2006.09.047", "about": "(Astellas Pharma, 2007)", "biological_target": "PI3-kinase p110α (Bos taurus)", "experiment": "The test compounds and enzyme were mixed in buffer, and the substrate and [gamma-33P] ATP/ATP were added to the mixture to initiate the reaction. After allowing the reaction to proceed at room temperature for 120 min, wheat germ agglutinin-coated SPA beads (Amersham) was added. The mixture was left to stand for 5 min and then centrifuged. Radi", "conditions": "pH 7.4", "note": "pIC50: −log10 of the molar value."}
{"molecule": "Cc1nc2ccc(Cl)cn2c1-c1ccn(S(=O)(=O)c2ccc([N+](=O)[O-])cc2)n1", "note": "[3-{6-chloro-2-methylimidazo[1,2-a]pyridin-3-yl}-1-[(4-nitrobenzene)sulfonyl]-1H-pyrazole]", "values": [{"measurement": "pIC50", "result": "< 4.52"}]}
{"molecule": "Cc1ccc([N+](=O)[O-])cc1S(=O)(=O)n1ccc(-c2cnc3ccc(Cl)cn23)c1", "note": "[3-{6-chloroimidazo[1,2-a]pyridin-3-yl}-1-[(2-methyl-5-nitrobenzene)sulfonyl]-1H-pyrrole]", "values": [{"measurement": "pIC50", "result": 7.00}]}
